From patent publication US20070203202A1, “Methods of reducing adverse events associated with pirfenidone therapy” (priority 2005, published 2007)
Like-named read-outs stand apart in the source and are kept apart here.

Tests used:
[1] = Single-dose four-treatment crossover study of the effect of food and antacid on adverse events; format: in vivo, human; conditions: for subjects who experienced an adverse event: single oral dose 3×267 mg, 16 healthy adults
Procedure: (§1) A study was designed to evaluate the effect of food, antacids, and food taken with antacids on adverse events associated with pirfenidone use. The trial was conducted as a randomized, open-label, four-treatment crossover, with a single dose for each treatment period and a 2-day washout period between study treatments. 16 healthy adults between the ages of 50 and 79 years having body mass indices between 18 and 30 (inclusive) were enrolled and completed all 4 treatment arms. The treatment arms were as follows:
A) pirfenidone alone (Fasted);
B) pirfenidone within 1 minute following a dose of antacid (20 mL Mylanta® Maximum Strength Liquid) (Fasted+Antacid);
C) pirfenidone 5 minutes after completing a standard meal (Fed); and
D) pirfenidone 5 minutes after completing a standard meal, then within 1 minute, followed by a dose of antacid (Fed+Antacid).
(§2) All subjects were admitted to the clinic for clinical evaluation the day prior to receiving the first dose of the study medication and remained confined for 13 days. Following an overnight fast of at least 10 hours (h), subjects were randomized to one of the above-described 4 treatment sequences. Each dose of pirfenidone (3×267 mg capsules) was administered orally with 240 mL room temperature water on days 1, 4, 7, and 10 in the morning, following an overnight fast of at least 10 hours. The washout period between treatments was 2 days. A standard meal consisted of 2 fried eggs, 2 strips of bacon, 2 slices of toast, 2 pats of butter, hash brown potatoes (4 oz), and whole milk (8 oz).
On each study day, adverse events were reviewed with the patients as follows. Before administration of the first dose of the study drug, study site personnel noted the occurrence and nature of each subject's medical condition(s). During the trial, site personnel again noted any change in the condition(s) or occurrence and nature of any adverse events. The severity of adverse events were graded based on the Modified Common Toxicity Criteria and the relationship of the study drug to the adverse event determined.

[2] = Multiple-dose escalating-dose study of adverse events, doses taken with food; format: in vivo, human; conditions: 801 to 4005 mg/day escalating
Procedure: A second study was designed to examine incidences of adverse events on multiple ascending daily doses of pirfenidone. The trial was conducted as an open-label, escalating-dose study with no washout period between dose escalations. 25 healthy adults between the ages of 45 and 79 (inclusive) having body mass indices between 18 and 30 (inclusive) were enrolled. 22 adults completed the treatment. Each volunteer received from 801 mg/day to 4005 mg/day of pirfenidone divided into three equal doses as follows:
All subjects were admitted to the clinic for clinical evaluation the day before the first dose of study medication and remained confined for 17 days. Each subject received all dose levels of the study drug unless adverse events or the clinical judgment of the trial physician precluded the continuation of treatment. All doses were taken with 240 mL room temperature water and with food (excluding grapefruit juice). TID doses times were ˜0800, ˜1200, and ˜1800.

[3] = Pharmacokinetics of an 801 mg pirfenidone dose taken with or without food; format: in vivo, human; conditions: for half-life: human, plasma, oral, 801 mg, read-out: mean absorption half life (converted)
Procedure: as §1, §2
Of 7 subjects who reported nausea, 5 of 16 (31%) were fasted compared to only 2 of 16 (13%) fed subjects. Of 5 subjects reporting dizziness, 4 of 16 (25%) were fasted, while only 1 of 16 (6%) was fed. Of 3 subjects reporting somnolence, 2 of 16 (13%) were fasted and 1 of 16 (6%) were fed. Of 3 subjects reporting headaches, 2 of 16 (13%) were fasted and 1 of 16 (6%) were fed.

[4] = test system: fibrogenic cytokines such as TGF-β1, bFGF, PDGF, and EGF; conditions: Zhang S et al. 1998; cited from earlier work
[5] = test system: TNF-α; conditions: macrophages and other cells; Cain et al. 1998; cited from earlier work
[6] = 801 mg pirfenidone without food

With Cc1ccc(=O)n(-c2ccccc2)c1 [pirfenidone, 5-methyl-1-phenyl-2-(1H)-pyridone] as the compound, how does the incidence of somnolence ([1]; all arms, 4 of 16) read?
Its incidence of somnolence is 25%.

And the incidence of dizziness ([1]; all arms, 6 of 16)?
Its incidence of dizziness is 38%.

What about the incidence of nausea ([1]; all arms, 7 of 16) of the same compound?
Its incidence of nausea is 44%.

And the subjects with adverse events in whom the adverse events were mild ([1]; all arms, 8 of the 12 subjects with an adverse event)?
Its subjects with adverse events in whom the adverse events were mild is 66.7%.

And the “subjects with at least 1 adverse event in total” value ([1]; all four treatment arms, 12 of 16 subjects)?
The value was 75%.

And the incidence of headaches ([1]; fasted, 2 of 16)?
Its incidence of headaches is 13%.

And the incidence of somnolence ([1]; fasted, 2 of 16)?
Its incidence of somnolence is 13%.

What about the incidence of dizziness ([1]; fasted, 4 of 16) of the same compound?
The incidence of dizziness was 25%.

And the incidence of nausea ([1]; fasted, 5 of 16)?
Its incidence of nausea is 31%.

What about the incidence of dizziness ([1]; fed, 1 of 16) of the same compound?
Its incidence of dizziness is 6%.

What about the incidence of headaches ([1]; fed, 1 of 16) of the same compound?
The incidence of headaches was 6%.

And the incidence of somnolence ([1]; fed, 1 of 16)?
The incidence of somnolence was 6%.

And the incidence of nausea ([1]; fed, 2 of 16)?
Its incidence of nausea is 13%.

And the “subjects who experienced an adverse event” value ([1]; pirfenidone alone without food (Fasted))?
Its value is 56.3%.

And the “subjects who experienced an adverse event” value ([1]; with food (Fed))?
Its value is 31.3%.

And the “subjects who experienced an adverse event” value ([1]; with food and antacid (Fed+Antacid))?
The value was 25%.

And the “subjects who experienced an adverse event” value ([1]; within 1 minute following a dose of antacid (Fasted+Antacid))?
The value was 56.3%.

What about the “subjects with at least one adverse event” value ([2]; TID with food, 23 of 25 healthy adults) of the same compound?
Its value is 92%.

And the incidence of headache ([2]; with food, 7 of 25)?
The incidence of headache was 28%.

What about the incidence of somnolence ([2]; with food, 8 of 25) of the same compound?
Its incidence of somnolence is 32%.

What about the incidence of nausea ([2]; with food, 9 of 25) of the same compound?
The incidence of nausea was 36%.

What about the “subjects with adverse events in whom the adverse events were mild” value ([2]; with food, 22 of the 23 subjects) of the same compound?
Its value is 95%.

And the “mean maximum plasma concentration” value ([3]; 801 mg pirfenidone with food)?
Its value is 7874 ng/mL.

What about the “mean maximum plasma concentration” value [3, 6] of the same compound?
Its value is 15724 ng/mL.

And the half-life ([3]; 801 mg pirfenidone with food)?
Its half-life is 1.78 h.

What about the half-life [3, 6] of the same compound?
Its half-life is 0.572 h.

What about the “effect on biosynthesis or release of fibrogenic cytokines” value [4] of the same compound?
The value was “inhibits excessive biosynthesis or release”.

And the “effect on synthesis and release of TNF-α” value [5]?
The value was “blocks the synthesis and release of excessive amounts of TNF-α”.
